How the values were obtained:
[1] = tested on: Tyrosine-protein kinase ABL1 (Homo sapiens), P00519 [Q252H]; conditions: Compound concentration 1000.0 nM
[2] = target: Tyrosine-protein kinase ABL1 (Homo sapiens) (UniProt P00519); conditions: Compound concentration 1000.0 nM
[3] = target: Serine/threonine-protein kinase BRSK1 (Homo sapiens) (UniProt Q8TDC3); conditions: Compound concentration 1000.0 nM
[4] = target: Calcium/calmodulin-dependent protein kinase type IV (Homo sapiens) (UniProt Q16566); conditions: Compound concentration 1000.0 nM
[5] = target: Cyclin-dependent kinase 11B (Homo sapiens) (UniProt P21127); conditions: Compound concentration 1000.0 nM
[6] = target: Cyclin-dependent kinase 4 (Homo sapiens) (UniProt P11802); conditions: Compound concentration 1000.0 nM
[7] = target: Cyclin-dependent kinase 7 (Homo sapiens) (UniProt P50613); conditions: Compound concentration 1000.0 nM
[8] = target: Cyclin-dependent kinase-like 5 (Homo sapiens) (UniProt O76039); conditions: Compound concentration 1000.0 nM
[9] = target: Dual specificity protein kinase CLK3 (Homo sapiens) (UniProt P49761); conditions: Compound concentration 1000.0 nM
[10] = target: Casein kinase I isoform epsilon (Homo sapiens) (UniProt P49674); conditions: Compound concentration 1000.0 nM
[11] = target: Serine/threonine-protein kinase DCLK1 (Homo sapiens) (UniProt O15075); conditions: Compound concentration 1000.0 nM
[12] = target: Serine/threonine-protein kinase DCLK2 (Homo sapiens) (UniProt Q8N568); conditions: Compound concentration 1000.0 nM
[13] = target: Ephrin type-A receptor 5 (Homo sapiens) (UniProt P54756); conditions: Compound concentration 1000.0 nM
[14] = target: Fibroblast growth factor receptor 1 (Homo sapiens) (UniProt P11362); conditions: Compound concentration 1000.0 nM
[15] = tested on: Receptor-type tyrosine-protein kinase FLT3 (Homo sapiens), P36888 [R834Q]; conditions: Compound concentration 1000.0 nM
[16] = target: Homeodomain-interacting protein kinase 2 (Homo sapiens) (UniProt Q9H2X6); conditions: Compound concentration 1000.0 nM
[17] = target: Insulin-like growth factor 1 receptor (Homo sapiens) (UniProt P08069); conditions: Compound concentration 1000.0 nM
[18] = target: Insulin receptor (Homo sapiens) (UniProt P06213); conditions: Compound concentration 1000.0 nM
[19] = tested on: Mast/stem cell growth factor receptor Kit (Homo sapiens), P10721 [V559D,T670I]; conditions: Compound concentration 1000.0 nM
[20] = target: Serine/threonine-protein kinase 10 (Homo sapiens) (UniProt O94804); conditions: Compound concentration 1000.0 nM
[21] = target: MAP kinase-interacting serine/threonine-protein kinase 1 (Homo sapiens) (UniProt Q9BUB5); conditions: Compound concentration 1000.0 nM
[22] = target: Serine/threonine-protein kinase 3 (Homo sapiens) (UniProt Q13188); conditions: Compound concentration 1000.0 nM
[23] = target: Serine/threonine-protein kinase Nek11 (Homo sapiens) (UniProt Q8NG66); conditions: Compound concentration 1000.0 nM
[24] = target: Serine/threonine-protein kinase Nek4 (Homo sapiens) (UniProt P51957); conditions: Compound concentration 1000.0 nM
[25] = target: Serine/threonine-protein kinase Nek5 (Homo sapiens) (UniProt Q6P3R8); conditions: Compound concentration 1000.0 nM
[26] = target: Serine/threonine-protein kinase NLK (Homo sapiens) (UniProt Q9UBE8); conditions: Compound concentration 1000.0 nM
[27] = target: Mitogen-activated protein kinase 14 (Homo sapiens) (UniProt Q16539); conditions: Compound concentration 1000.0 nM
[28] = tested on: Phosphatidylinositol 4,5-bisphosphate 3-kinase catalytic subunit alpha isoform (Homo sapiens), P42336 [E545K]; conditions: Compound concentration 1000.0 nM
[29] = tested on: Phosphatidylinositol 4,5-bisphosphate 3-kinase catalytic subunit alpha isoform (Homo sapiens), P42336 [H1047L]; conditions: Compound concentration 1000.0 nM
[30] = tested on: Phosphatidylinositol 4,5-bisphosphate 3-kinase catalytic subunit alpha isoform (Homo sapiens), P42336 [I800L]; conditions: Compound concentration 1000.0 nM
[31] = target: Phosphatidylinositol 5-phosphate 4-kinase type-2 beta (Homo sapiens) (UniProt P78356); conditions: Compound concentration 1000.0 nM
[32] = target: Serine/threonine-protein kinase RIO1 (Homo sapiens) (UniProt Q9BRS2); conditions: Compound concentration 1000.0 nM
[33] = target: Rho-associated protein kinase 1 (Homo sapiens) (UniProt Q13464); conditions: Compound concentration 1000.0 nM
[34] = target: Ribosomal protein S6 kinase alpha-1 (Homo sapiens) (UniProt Q15418); conditions: Compound concentration 1000.0 nM
[35] = target: Ribosomal protein S6 kinase alpha-3 (Homo sapiens) (UniProt P51812); conditions: Compound concentration 1000.0 nM
[36] = target: Ribosomal protein S6 kinase beta-1 (Homo sapiens) (UniProt P23443); conditions: Compound concentration 1000.0 nM
[37] = target: NUAK family SNF1-like kinase 2 (Homo sapiens) (UniProt Q9H093); conditions: Compound concentration 1000.0 nM
[38] = target: Serine/threonine-protein kinase TBK1 (Homo sapiens) (UniProt Q9UHD2); conditions: Compound concentration 1000.0 nM
[39] = target: Angiopoietin-1 receptor (Homo sapiens) (UniProt Q02763); conditions: Compound concentration 1000.0 nM
[40] = target: Dual specificity protein kinase TTK (Homo sapiens) (UniProt P33981); conditions: Compound concentration 1000.0 nM
[41] = target: Vascular endothelial growth factor receptor 2 (Homo sapiens) (UniProt P35968); conditions: Compound concentration 1000.0 nM
[42] = target: Wee1-like protein kinase 2 (Homo sapiens) (UniProt P0C1S8); conditions: Compound concentration 1000.0 nM
[43] = target: Serine/threonine-protein kinase 25 (Homo sapiens) (UniProt O00506); conditions: Compound concentration 1000.0 nM
[44] = target: Mitogen-activated protein kinase kinase kinase 19 (Homo sapiens) (UniProt Q56UN5); conditions: Compound concentration 1000.0 nM
[45] = target: 5-hydroxytryptamine receptor 1E (Homo sapiens) (UniProt P28566); conditions: Compound concentration 10.0 uM

Chain of Mitogen-activated protein kinase kinase kinase 19 (Homo sapiens) (Q56UN5 whole entry): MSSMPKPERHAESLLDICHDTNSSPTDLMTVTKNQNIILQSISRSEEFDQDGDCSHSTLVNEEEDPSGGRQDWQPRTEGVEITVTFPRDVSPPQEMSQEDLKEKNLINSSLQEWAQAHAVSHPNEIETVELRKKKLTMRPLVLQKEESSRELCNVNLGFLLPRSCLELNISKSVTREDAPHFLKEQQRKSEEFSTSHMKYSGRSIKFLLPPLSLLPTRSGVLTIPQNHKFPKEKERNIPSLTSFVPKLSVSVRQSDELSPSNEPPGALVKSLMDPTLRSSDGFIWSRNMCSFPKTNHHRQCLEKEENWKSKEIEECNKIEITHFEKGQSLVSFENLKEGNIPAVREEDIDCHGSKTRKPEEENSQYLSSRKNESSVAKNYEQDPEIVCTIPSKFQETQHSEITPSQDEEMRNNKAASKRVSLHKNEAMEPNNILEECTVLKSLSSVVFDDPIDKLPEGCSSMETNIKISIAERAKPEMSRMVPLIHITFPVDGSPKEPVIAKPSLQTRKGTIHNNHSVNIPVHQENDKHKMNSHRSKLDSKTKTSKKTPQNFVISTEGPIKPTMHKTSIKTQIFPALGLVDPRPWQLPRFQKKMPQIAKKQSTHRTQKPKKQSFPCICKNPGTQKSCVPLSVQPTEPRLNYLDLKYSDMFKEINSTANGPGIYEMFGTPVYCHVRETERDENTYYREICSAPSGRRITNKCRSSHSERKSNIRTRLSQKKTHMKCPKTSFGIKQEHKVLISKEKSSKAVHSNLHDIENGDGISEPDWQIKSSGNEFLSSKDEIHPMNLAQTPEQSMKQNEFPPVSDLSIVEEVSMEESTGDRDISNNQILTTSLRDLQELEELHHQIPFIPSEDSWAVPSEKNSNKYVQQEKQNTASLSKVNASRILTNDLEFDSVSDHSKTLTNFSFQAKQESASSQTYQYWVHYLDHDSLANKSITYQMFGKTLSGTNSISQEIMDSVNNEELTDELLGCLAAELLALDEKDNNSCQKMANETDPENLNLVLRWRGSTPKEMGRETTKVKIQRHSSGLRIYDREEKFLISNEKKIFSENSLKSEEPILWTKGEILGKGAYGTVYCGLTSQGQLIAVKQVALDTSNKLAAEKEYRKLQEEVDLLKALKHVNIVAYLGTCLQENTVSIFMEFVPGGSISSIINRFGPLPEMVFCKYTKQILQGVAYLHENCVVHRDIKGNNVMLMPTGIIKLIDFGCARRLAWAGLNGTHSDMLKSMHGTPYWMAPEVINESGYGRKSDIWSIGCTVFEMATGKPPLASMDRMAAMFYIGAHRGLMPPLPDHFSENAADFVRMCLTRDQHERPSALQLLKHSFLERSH
Chain of Mitogen-activated protein kinase 14 (Homo sapiens) (Q16539 whole entry, canonical isoform): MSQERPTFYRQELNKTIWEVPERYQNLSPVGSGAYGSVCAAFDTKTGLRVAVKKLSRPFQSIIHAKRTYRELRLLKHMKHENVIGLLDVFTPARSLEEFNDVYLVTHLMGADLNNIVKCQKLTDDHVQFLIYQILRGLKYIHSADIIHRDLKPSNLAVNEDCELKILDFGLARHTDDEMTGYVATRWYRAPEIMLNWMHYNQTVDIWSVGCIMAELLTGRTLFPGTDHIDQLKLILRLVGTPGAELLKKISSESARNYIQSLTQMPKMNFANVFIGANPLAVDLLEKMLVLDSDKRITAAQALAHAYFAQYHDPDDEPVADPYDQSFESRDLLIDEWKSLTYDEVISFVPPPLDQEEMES
Chain of NUAK family SNF1-like kinase 2 (Homo sapiens) (Q9H093 whole entry): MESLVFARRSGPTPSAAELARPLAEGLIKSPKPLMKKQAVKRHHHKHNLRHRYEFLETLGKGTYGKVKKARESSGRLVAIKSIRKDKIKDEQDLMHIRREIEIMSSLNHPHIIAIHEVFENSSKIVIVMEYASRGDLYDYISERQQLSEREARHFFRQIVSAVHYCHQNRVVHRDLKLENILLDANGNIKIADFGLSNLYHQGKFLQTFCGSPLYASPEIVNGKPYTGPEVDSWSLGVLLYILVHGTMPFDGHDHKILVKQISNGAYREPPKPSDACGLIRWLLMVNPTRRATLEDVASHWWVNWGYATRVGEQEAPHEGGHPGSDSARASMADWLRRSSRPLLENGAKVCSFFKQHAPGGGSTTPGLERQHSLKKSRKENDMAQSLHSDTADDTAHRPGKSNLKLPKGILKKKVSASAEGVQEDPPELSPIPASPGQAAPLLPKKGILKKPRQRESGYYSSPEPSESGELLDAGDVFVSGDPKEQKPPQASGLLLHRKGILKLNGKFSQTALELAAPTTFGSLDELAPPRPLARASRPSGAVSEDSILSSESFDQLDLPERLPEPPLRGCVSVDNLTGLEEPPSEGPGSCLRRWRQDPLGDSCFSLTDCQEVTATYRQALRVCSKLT
Chain of Serine/threonine-protein kinase 3 (Homo sapiens) (Q13188 whole entry): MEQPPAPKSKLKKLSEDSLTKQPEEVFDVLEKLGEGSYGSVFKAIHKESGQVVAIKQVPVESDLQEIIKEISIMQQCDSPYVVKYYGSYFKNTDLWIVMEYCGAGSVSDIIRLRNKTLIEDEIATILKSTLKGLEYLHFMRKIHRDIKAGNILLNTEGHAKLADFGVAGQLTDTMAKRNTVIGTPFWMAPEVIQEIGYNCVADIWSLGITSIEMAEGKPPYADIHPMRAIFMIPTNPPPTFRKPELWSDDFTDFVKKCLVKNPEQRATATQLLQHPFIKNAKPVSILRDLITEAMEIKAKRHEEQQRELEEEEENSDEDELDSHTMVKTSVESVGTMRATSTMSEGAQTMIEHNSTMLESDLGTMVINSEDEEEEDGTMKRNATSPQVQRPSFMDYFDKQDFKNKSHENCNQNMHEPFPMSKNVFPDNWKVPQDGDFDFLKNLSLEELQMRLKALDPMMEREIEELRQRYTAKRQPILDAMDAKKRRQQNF
Chain of Insulin-like growth factor 1 receptor (Homo sapiens) (P08069 31-736 limits assumed): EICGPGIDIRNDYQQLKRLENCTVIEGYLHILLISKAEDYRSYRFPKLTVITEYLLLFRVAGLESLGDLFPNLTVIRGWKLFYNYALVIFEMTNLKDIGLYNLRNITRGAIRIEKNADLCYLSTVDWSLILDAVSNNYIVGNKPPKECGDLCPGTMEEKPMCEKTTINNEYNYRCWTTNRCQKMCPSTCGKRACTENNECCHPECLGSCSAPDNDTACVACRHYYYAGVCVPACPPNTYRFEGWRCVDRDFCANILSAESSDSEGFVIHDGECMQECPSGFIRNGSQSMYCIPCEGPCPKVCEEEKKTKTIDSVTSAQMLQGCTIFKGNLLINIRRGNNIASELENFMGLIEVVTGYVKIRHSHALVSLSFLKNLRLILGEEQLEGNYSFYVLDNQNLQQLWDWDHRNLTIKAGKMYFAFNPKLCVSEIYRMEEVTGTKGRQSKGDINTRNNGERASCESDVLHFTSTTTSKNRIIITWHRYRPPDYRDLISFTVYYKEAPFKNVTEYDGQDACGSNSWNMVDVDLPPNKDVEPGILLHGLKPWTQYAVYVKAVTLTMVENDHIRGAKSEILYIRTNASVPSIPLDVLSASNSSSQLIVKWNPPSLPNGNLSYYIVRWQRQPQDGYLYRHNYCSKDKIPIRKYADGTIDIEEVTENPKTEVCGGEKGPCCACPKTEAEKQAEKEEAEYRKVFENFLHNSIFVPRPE
Chain of Insulin-like growth factor 1 receptor (Homo sapiens) (P08069 741-1367 limits assumed): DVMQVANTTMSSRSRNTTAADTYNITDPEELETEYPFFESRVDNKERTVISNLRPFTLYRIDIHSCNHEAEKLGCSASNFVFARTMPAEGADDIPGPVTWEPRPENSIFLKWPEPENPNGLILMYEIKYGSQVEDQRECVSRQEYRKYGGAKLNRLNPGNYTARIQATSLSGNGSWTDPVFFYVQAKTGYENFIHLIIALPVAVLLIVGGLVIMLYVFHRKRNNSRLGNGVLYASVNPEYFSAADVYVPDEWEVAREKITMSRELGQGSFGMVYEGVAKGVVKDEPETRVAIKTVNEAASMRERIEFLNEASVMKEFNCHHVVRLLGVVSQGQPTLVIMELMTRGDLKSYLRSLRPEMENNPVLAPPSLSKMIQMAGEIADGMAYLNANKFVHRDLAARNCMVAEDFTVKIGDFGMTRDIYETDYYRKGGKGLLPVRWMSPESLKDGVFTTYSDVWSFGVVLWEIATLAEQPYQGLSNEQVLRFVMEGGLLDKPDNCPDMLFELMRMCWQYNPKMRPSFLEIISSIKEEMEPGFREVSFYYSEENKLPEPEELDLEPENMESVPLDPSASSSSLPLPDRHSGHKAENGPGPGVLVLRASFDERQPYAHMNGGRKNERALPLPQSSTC
Chain of Dual specificity protein kinase TTK (Homo sapiens) (P33981 whole entry): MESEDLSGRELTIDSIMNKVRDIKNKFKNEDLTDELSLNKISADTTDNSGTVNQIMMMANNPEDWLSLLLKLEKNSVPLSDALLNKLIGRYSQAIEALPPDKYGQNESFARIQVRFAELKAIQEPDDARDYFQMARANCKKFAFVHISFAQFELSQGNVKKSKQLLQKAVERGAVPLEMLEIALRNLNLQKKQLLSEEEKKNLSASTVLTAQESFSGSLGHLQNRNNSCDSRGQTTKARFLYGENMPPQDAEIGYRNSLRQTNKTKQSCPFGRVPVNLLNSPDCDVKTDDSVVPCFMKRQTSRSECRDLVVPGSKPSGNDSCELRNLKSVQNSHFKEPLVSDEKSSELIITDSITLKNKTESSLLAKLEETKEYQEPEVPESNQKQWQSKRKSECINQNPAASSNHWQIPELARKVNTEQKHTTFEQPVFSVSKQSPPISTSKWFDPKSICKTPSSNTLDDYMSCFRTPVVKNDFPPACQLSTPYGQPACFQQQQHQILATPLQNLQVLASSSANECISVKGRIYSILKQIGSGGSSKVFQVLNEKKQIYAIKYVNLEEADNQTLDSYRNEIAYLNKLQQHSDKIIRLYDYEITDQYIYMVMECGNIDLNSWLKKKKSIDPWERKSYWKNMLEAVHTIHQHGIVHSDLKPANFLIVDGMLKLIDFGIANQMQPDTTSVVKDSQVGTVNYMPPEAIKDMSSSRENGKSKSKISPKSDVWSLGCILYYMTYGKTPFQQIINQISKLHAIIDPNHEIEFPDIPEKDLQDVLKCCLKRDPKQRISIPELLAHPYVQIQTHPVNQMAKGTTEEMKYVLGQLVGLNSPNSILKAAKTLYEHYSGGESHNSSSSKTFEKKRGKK

CCC(=N\O)/C(C)=C/c1ccc(F)c(C)c1 [A-226]
inactive: residual activity [1] 100% | residual activity [2] 100% | residual activity [3] 99% | residual activity [4] 87% | residual activity [5] 95% | residual activity [6] 100% | residual activity [7] 93% | residual activity [8] 100% | residual activity [9] 100% | residual activity [10] 92% | residual activity [11] 100% | residual activity [12] 83% | residual activity [13] 79% | residual activity [14] 57% | residual activity [15] 100% | residual activity [16] 100% | residual activity [17] 100% | residual activity [18] 100% | residual activity [19] 100% | residual activity [20] 73% | residual activity [21] 100% | residual activity [22] 100% | residual activity [23] 100% | residual activity [24] 67% | residual activity [25] 100% | residual activity [26] 56% | residual activity [27] 100% | residual activity [28] 100% | residual activity [29] 100% | residual activity [30] 100% | residual activity [31] 74% | residual activity [32] 100% | residual activity [33] 100% | residual activity [34] 100% | residual activity [35] 100% | residual activity [36] 100% | residual activity [37] 100% | residual activity [38] 93% | residual activity [39] 85% | residual activity [40] 93% | residual activity [41] 100% | residual activity [42] 100% | residual activity [43] 100% | residual activity [44] 98% | inhibition [45] 4.47%

CCC(=N\O)/C(C)=C/c1ccc(F)cc1 [A-079]
inactive: residual activity [1] 90% | residual activity [2] 83% | residual activity [3] 100% | residual activity [4] 69% | residual activity [5] 89% | residual activity [6] 78% | residual activity [7] 60% | residual activity [8] 82% | residual activity [9] 73% | residual activity [10] 99% | residual activity [11] 93% | residual activity [12] 96% | residual activity [13] 64% | residual activity [14] 100% | residual activity [15] 80% | residual activity [16] 100% | residual activity [17] 79% | residual activity [18] 100% | residual activity [19] 95% | residual activity [20] 76% | residual activity [21] 56% | residual activity [22] 100% | residual activity [23] 100% | residual activity [24] 83% | residual activity [25] 84% | residual activity [26] 100% | residual activity [27] 100% | residual activity [28] 100% | residual activity [29] 100% | residual activity [30] 100% | residual activity [31] 91% | residual activity [32] 80% | residual activity [33] 100% | residual activity [34] 100% | residual activity [35] 81% | residual activity [36] 66% | residual activity [37] 73% | residual activity [38] 75% | residual activity [39] 89% | residual activity [40] 96% | residual activity [41] 81% | residual activity [42] 83% | residual activity [43] 86% | residual activity [44] 66% | inhibition [45] 6.66%

Reference: ChEMBL document CHEMBL4507256 (2021)
